Laboratory results reported in ChEMBL document CHEMBL5257138, “Cytosolic Enzymes Generate Cannabinoid Metabolites 7-Carboxycannabidiol and 11-Nor-9-carboxytetrahydrocannabinol” (ACS Med Chem Lett, 2023).

Columns and labels:
Type in all cases: ADME, subcellular
[1] = Drug metabolism in human liver S9 fraction assessed as metabolite 11-COOH-THC formation at 1 uM incubated for 10 mins in presence of NAD+ by LC-MS/MS analysis; details: s9, 10 min
[2] = Drug metabolism in human liver S9 fraction assessed as reduction in metabolite 11-COOH-THC formation by measuring hydralazine IC50 incubated for 20 mins in presence of NAD+ by LC-MS/MS analysis
[3] = Drug metabolism in human liver S9 fraction assessed as reduction in metabolite 11-COOH-THC formation by measuring WIN18446 IC50 incubated for 10 mins in presence of NAD+ by LC-MS/MS analysis
[4] = Drug metabolism in human liver S9 fraction assessed as metabolite 7-COOH-CBD formation at 1 uM incubated for 20 mins in presence of NADPH and NAD+ by LC-MS/MS analysis; details: s9, 20 min
[5] = Drug metabolism in human liver cytosol assessed as metabolite 7-COOH-CBD formation at 1 uM incubated for 20 mins in presence of NADPH and NAD+ by LC-MS/MS analysis
[6] = Drug metabolism in human liver S9 fraction assessed as metabolite 7-COOH-CBD formation at 1 uM incubated for 20 mins in presence of NADPH by LC-MS/MS analysis; details: s9, 20 min
[7] = Drug metabolism in human liver cytosol assessed as reduction in metabolite 7-COOH-CBD formation by measuring WIN18446 IC50 in presence of NAD+ measured after 30 mins by LC-MS/MS analysis

| SMILES | Drug metabolism [1] | IC50 [2] [nM] | IC50 [3] [nM] | Drug metabolism [4] | Drug metabolism [5] | Drug metabolism [6] | IC50 [7] [nM] |
| --- | --- | --- | --- | --- | --- | --- | --- |
| CCCCCc1cc(O)c2c(c1)OC(C)(C)[C@@H]1CCC(CO)=C[C@@H]21 | Metabolite_Detected | 53 | > 60000 | – | – | – | – |
| C=C(C)[C@@H]1CCC(CO)=C[C@H]1c1c(O)cc(CCCCC)cc1O | – | – | – | Metabolite_Detected | Metabolite_Detected | Metabolite_Notdetected | 285 |
